From US10227331B2 (priority 2015, dated 2019)
pIC50: −log10 of the molar value.

What was measured:
[1] = system: P. aeruginosa expressing IMP-1, efflux+ (MB9798); assay type: cell-based, Pseudomonas aeruginosa; conditions: for P. aeruginosa expressing IMP-1, efflux+ (MB9798) MITC95: imipenem at 2 μg/mL, in the presence of a class A, C, D serine β-lactamase inhibitor closely related to relebactam; for Efflux ratio: ratio MITC95 PA_9798/MITC95 PA_9799
Text: (§1) The strain background is Pseudomonas aeruginosa PAO1.

[2] = system: P. aeruginosa expressing IMP-1, efflux− (MB9799); assay: Efflux: concentration of MBL inhibitor which restores susceptibility to imipenem; assay type: cell-based, Pseudomonas aeruginosa; conditions: imipenem at 2 μg/mL, in the presence of a class A, C, D serine β-lactamase inhibitor closely related to relebactam
Text: as §1

VIM-1 = VIM-1 (Pseudomonas aeruginosa (strain ATCC 15692 / DSM 22644 / CIP 104116 / JCM 14847 / LMG 12228 / 1C / PRS 101 / PAO1), UniProt A0A0F7KYQ8); assay: biochemical; conditions: CCF2-FA substrate, 2 hours at 25° C
Outline: (§2)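 Two-hour, 25° C incubation of enzyme with inhibitor and CCF2-FA (7-hydroxycoumarin–cephalosporin–fluorescein). Fluorescence read-out; IC50 via 4-parameter fit.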

NDM-1 = NDM-1 (Klebsiella pneumoniae, UniProt C7C422); assay: biochemical; assay type: biochemical; conditions: CCF2-FA substrate, 2 hours at 25° C; read-out: NDM-1 IC50
Outline: as §2

IMP-1 = IMP-1 (Serratia marcescens, UniProt P52699); assay: biochemical; assay type: biochemical; conditions: CCF2-FA substrate, 2 hours at 25° C; read-out: IMP-1 IC50
Outline: as §2

[3] = system: Escherichia coli expressing NDM-1 (CLB30005, CLB30016); assay type: cell-based; conditions: with imipenem 1 μg/ml, 95% inhibition of bacterial growth; for Escherichia coli MITC95: NDM-1 (CLB30016)
Outline: (§3)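 Colonies from overnight 35 °C blood-agar cultures were suspended in saline, diluted 1:100 into 1.1× CAMHB and exposed to test compound with or without imipenem at 1 μg/ml. After 22–24 h at 35 °C, absorbance was read to find the concentration restoring imipenem susceptibility.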

[4] = system: Serratia marcescens expressing IMP-1 (CL5741); assay type: cell-based; conditions: with imipenem 1 μg/ml, 95% inhibition of bacterial growth; for Serratia marcescens MITC95: IMP-1 (CL5741)
Outline: as §3

[5] = system: Klebsiella pneumoniae expressing VIM-1 (IHMA599644); assay type: cell-based; conditions: with imipenem 1 μg/ml, 95% inhibition of bacterial growth; for Klebsiella pneumoniae MITC95: VIM-1 (IHMA599644)
Outline: as §3

NDM-1, sequence (C7C422 whole entry, looked up, species assumed): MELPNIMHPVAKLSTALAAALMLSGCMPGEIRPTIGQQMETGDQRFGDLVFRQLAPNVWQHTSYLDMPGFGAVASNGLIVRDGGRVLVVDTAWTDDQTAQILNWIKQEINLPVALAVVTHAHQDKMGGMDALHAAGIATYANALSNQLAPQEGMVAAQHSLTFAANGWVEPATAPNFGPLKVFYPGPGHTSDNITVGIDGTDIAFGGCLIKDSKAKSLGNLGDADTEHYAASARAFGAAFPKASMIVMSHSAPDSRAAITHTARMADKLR
IMP-1, sequence (P52699 whole entry, looked up, species assumed): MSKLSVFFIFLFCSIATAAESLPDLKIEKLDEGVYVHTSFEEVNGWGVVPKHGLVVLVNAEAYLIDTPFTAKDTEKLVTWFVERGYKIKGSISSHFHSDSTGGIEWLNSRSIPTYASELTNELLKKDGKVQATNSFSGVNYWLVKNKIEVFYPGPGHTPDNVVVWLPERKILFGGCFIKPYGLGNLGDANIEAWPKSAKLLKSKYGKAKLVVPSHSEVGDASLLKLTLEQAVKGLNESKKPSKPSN

SMILES | P. aeruginosa expressing IMP-1, efflux+ (MB9798) MITC95 [1] [µM] | Efflux ratio [1] | P. aeruginosa expressing IMP-1, efflux− (MB9799) MITC95 [2] [µM] | pIC50 (VIM-1) | pIC50 (NDM-1) | pIC50 (IMP-1) | Escherichia coli expressing NDM-1 (CLB30016) MITC95 [3] [µM] | Serratia marcescens expressing IMP-1 (CL5741) MITC95 [4] [µM] | Klebsiella pneumoniae expressing VIM-1 (IHMA599644) MITC95 [5] [µM] | Escherichia coli MITC95 [3] [µM] | Serratia marcescens MITC95 [4] [µM] | Klebsiella pneumoniae MITC95 [5] [µM]
NCCS(=O)(=O)c1ccc(-c2cccc3[nH]c(C(=O)O)nc23)c(-c2nn[nH]n2)c1S(N)(=O)=O [Example 91, 4-(4-((2-aminoethyl)sulfonyl)-3-sulfamoyl-2-(2H-tetrazol-5-yl)phenyl)-1H-benzo[d]imidazole-2-carboxylic Acid] | 0.7813 | 1.00 | 0.7813 | 9.62 | 9.72 | 9.41 | 1.172 | 1.563 | 2.344 | – | – | –
NS(=O)(=O)c1c(S(=O)(=O)C2CNC2)ccc(-c2cccc3cn[nH]c23)c1-c1nnn[nH]1 [Example 297, 6-(azetidin-3-ylsulfonyl)-3-(1H-indazol-7-yl)-2-(1H-tetrazol-5-yl)benzenesulfonamide] | 1.563 | 2.00 | 0.7813 | 9.55 | 9.66 | 9.23 | – | – | – | 1.563 | 1.563 | 3.125
COc1cc(-c2ccc(S(=O)(=O)CCN)c(S(N)(=O)=O)c2-c2nnn[nH]2)cnc1N.O=C(O)C(F)(F)F [Example 169, 2-((4-(6-amino-5-methoxypyridin-3-yl)-2-sulfamoyl-3-(1H-tetrazol-5-yl)phenyl)sulfonyl)ethanaminium 2,2,2-trifluoroacetate] | 25 | 15.99 | 1.563 | 8.99 | 8.22 | 8.28 | 0.7813 | 3.125 | 6.25 | – | – | –
NC(=O)N1CCC(S(=O)(=O)c2ccc(-c3cccc4nc(N)[nH]c34)c(-c3nn[nH]n3)c2S(N)(=O)=O)CC1 [Example 49, 4-(4-(2-amino-3H-benzo[d]imidazol-4-yl)-2-sulfamoyl-3-(2H-tetrazol-5-yl)phenylsulfonyl)piperidine-1-carboxamide] | 12.5 | 4.00 | 3.125 | 9.51 | 9.56 | 8.86 | 6.25 | 6.25 | 6.25 | – | – | –
Nc1n[nH]c2cc(-c3ccc(S(=O)(=O)C4CNC4)c(S(N)(=O)=O)c3-c3nn[nH]n3)ccc12 [Example 20] | 3.125 | 2.00 | 1.563 | 9.77 | 9.54 | 8.92 | 3.125 | 1.563 | 3.125 | – | – | –
NCCS(=O)(=O)c1ccc(-c2ccnc3c2CCCC3)c(-c2nn[nH]n2)c1S(N)(=O)=O [Example 271, 6-(2-aminoethylsulfonyl)-3-(5,6,7,8-tetrahydroquinolin-4-yl)-2-(2H-tetrazol-5-yl)benzenesulfonamide] | 12.5 | 8.00 | 1.563 | 9.75 | 8.88 | 9.16 | – | – | – | 3.125 | 3.125 | 3.125
Nc1nc2c(-c3ccc(S(=O)(=O)C4CNC4)c(S(N)(=O)=O)c3-c3nn[nH]n3)cccc2c(=O)[nH]1 [Example 37, 3-(2-amino-4-oxo-3,4-dihydroquinazolin-8-yl)-6-(azetidin-3-ylsulfonyl)-2-(2H-tetrazol-5-yl)benzenesulfonamide] | 3.125 | 2.00 | 1.563 | 9.46 | 10.09 | 8.72 | 25 | 3.125 | 6.25 | – | – | –
Nc1nc2c(-c3ccc(S(=O)(=O)CCO)c(S(N)(=O)=O)c3-c3nn[nH]n3)cccc2c[n+]1[O-] [Example 319, 2-amino-8-(4-((2-hydroxyethyl)sulfonyl)-3-sulfamoyl-2-(2H-tetrazol-5-yl)phenyl)quinazoline 3-oxide] | 25 | 2.00 | 12.5 | 9.39 | 9.71 | 8.72 | – | – | – | 100 | 25 | 50
Nc1nc2c(-c3ccc(S(=O)(=O)[C@H]4C[C@H](N)C4)c(S(N)(=O)=O)c3-c3nn[nH]n3)cccc2s1 [Example 179] | 0.7813 | 0.50 | 1.563 | 9.49 | 9.97 | 9.87 | 0.7813 | 1.563 | 1.563 | – | – | –
NCCN1CCC(S(=O)(=O)c2ccc(-c3cccc4nc(N)[nH]c34)c(-c3nn[nH]n3)c2S(N)(=O)=O)CC1 [Example 48, 3-(2-amino-3H-benzo[d]imidazol-4-yl)-6-(1-(2-aminoethyl)piperidin-4-ylsulfonyl)-2-(2H-tetrazol-5-yl)benzenesulfonamide] | 3.125 | 2.00 | 1.563 | 9.39 | 9.41 | 8.64 | 1.563 | 3.125 | 3.125 | – | – | –
NCCCNC(=O)c1cccc(-c2ccc(S(=O)(=O)CCN)c(S(N)(=O)=O)c2-c2nn[nH]n2)c1N [Example 375, 2-Amino-4′-((2-aminoethyl)sulfonyl)-N-(3-aminopropyl)-3′-sulfamoyl-2′-(2H-tetrazol-5-yl)-[1,1′-biphenyl]-3-carboxamide] | 1.563 | 2.00 | 0.7813 | 9.28 | 8.68 | 8.77 | – | – | – | 1.563 | 1.563 | 1.563
